EP4129319A1, “PORE-FORMING ANTIMICROBIAL PEPTIDES” (priority 2021, dated 2023)
Read-outs that look alike come from different tables or passages of the source. Ends that are not written are not given here.

Tests used:
[1] = system: Gram-negative Escherichia coli TOP10 strain; type: cell-based; settings: for Antibacterial activity (MIC in µM) E. coli TOP10: broth microdilution assay; for MIC against E. coli: 24 h at 37 °C, dilution series 50 to 0.1 µM
Protocol: (§1) Chemicals. […] (Prague, Czech Republic), and Caslo ApS (Kongens Lyngby, Denmark). […] The bacterial stock was stored at -80°C.
(§2) Broth microdilution assay. Antimicrobial activity of the peptides was investigated against Gram-negative Escherichia coli TOP10 strain and Gram-positive Staphylococcus carnosus CCM 4838T using broth microdilution assay, based on which the inventors determined the bacterial minimum inhibition concentration (MIC). After cross streaking with bacteria, the petri dishes (with MHA) were incubated for 24 h at 37 °C. Overnight grown cultures were then sub-cultured for 4-6 h at 37 °C in test tubes containing MHB. The sub-cultured solutions were subsequently diluted to a standard concentration of 10^6 colony forming units (CFU) per mL. Cell counts were determined by measuring the optical density at 600 nm. In a flat-bottomed 96 well plate, the inventors prepared a dilution series for the peptides and for the reference antibiotic ampicillin from 50 to 0.1 µM concentration, which was then inoculated with bacteria and incubated for 24 h at 37 °C. Growth control wells were free from peptides or ampicillin to show the viability of the bacteria, and sterility control wells were free from bacterial inoculation to verify the sterility of the medium. The bacterial growth was visually evaluated based on the turbidity. MIC was determined as the lowest concentrated well where no visible bacterial growth was observed. To test the bacteriostatic or bacteriocidal activity of the peptides, 50 µl solution from the highest concentrated well (i.e., 50 µM) was transferred to a test tube containing 4 mL sterile MHB and incubated for 24 h at 37 °C under constant stirring. Streaking of the same solution was done on MHA containing petri dishes and incubated for 24 h at 37 °C to confirm the morphology of the colonies grown. Experiments were performed in triplicates.

[2] = system: Gram-positive Staphylococcus carnosus CCM 4838T; type: cell-based; settings: for Antibacterial activity (MIC in µM) S. carnosus: CCM 4838
Protocol: as §1, §2

Calcein leakage assay = type: biochemical; settings: for Extent of leakage (in percentage) at increasing peptide-to-lipid ratio (mol/mol) 1:100 / Extent of leakage (in percentage) at increasing peptide-to-lipid ratio (mol/mol) 1:10 / Extent of leakage (in percentage) at increasing peptide-to-lipid ratio (mol/mol) 1:20 / Extent of leakage (in percentage) at increasing peptide-to-lipid ratio (mol/mol) 1:50: calcein leakage, POPC:POPG (1:1 mol/mol) LUVs; for Extent of leakage (in percentage) at increasing peptide-to-lipid ratio (mol/mol) 1:100: peptide-to-lipid ratio 1:100 (mol/mol); for Extent of leakage (in percentage) at increasing peptide-to-lipid ratio (mol/mol) 1:10: peptide-to-lipid ratio 1:10 (mol/mol); for Extent of leakage (in percentage) at increasing peptide-to-lipid ratio (mol/mol) 1:20: peptide-to-lipid ratio 1:20 (mol/mol); for Extent of leakage (in percentage) at increasing peptide-to-lipid ratio (mol/mol) 1:50: peptide-to-lipid ratio 1:50 (mol/mol)
Protocol: as §1
Calcein leakage assay. Pore-forming activity of the peptides was tested by their ability to leak the self-quenching fluorescent dye calcein entrapped within POPC:POPG (1:1 mol/mol) large unilamellar vesicles (LUVs). After mixing DiD to the lipid mixture (in the ratio 1:500 mol/mol), a thin lipid film was created by evaporating of the chloroform, traces of which were removed by desiccating overnight. The lipid film was then dissolved in calcein buffer, followed by vigorous vortexing. The lipid suspension was subsequently subjected to 10 freeze-thaw cycles. To obtain uniform LUVs, the sample was passed 50 times back and forth through an extruder stacked with 100 nm pore size polycarbonate membrane filter. Afterwards, the untrapped calcein was removed on a HiTrap Desalting Column (with Sephadex G-25 Superfine resin) by washing with PBS buffer. The concentration of the lipid suspension was then adjusted to 0.02 mM. The concentration of the peptide solution was 0.1 mM. The inventors monitored the peptide-induced release of calcein from LUVs by the increase in fluorescence intensity after adding increasing amounts of peptides to the LUVs under constant stirring at 25 °C. The investigated range of peptide/lipid molecular ratio was from 1:100 to 1:10. The excitation and emission wavelengths were set to 495 nm and 520 nm, respectively. Maximum fluorescence intensity was obtained by disrupting all the vesicles in the end by adding 10% Triton X-100. Experiments were performed in triplicates with independently prepared lipid vesicles.

[3] = system: human red blood cells (HRBCs); type: cell-based
Protocol: as §1
Hemolysis assay. Hemolytic toxicity of the peptides was evaluated from their ability to lyse the fresh human red blood cells (HRBCs) collected from the University Hospital (Brno, Czech Republic). To obtain the erythrocyte pellets, the blood samples were centrifuged twice at 700×g and subsequently, once at 1000×g, each for 8 min. at 4 °C, which was followed by thorough washing with PBS. Resuspension of the pellets was done in PBS to obtain 0.5% (vol/vol) RBC suspension. In a well plate with 96 V-shaped bottom wells, the peptides were added in a dilution series from 0.1 to 50 µM concentration. Subsequently, HRBC suspension was added in each well. Negative control wells contained only PBS and HRBC suspension without any peptide (i.e., 0% lysis), and positive control wells included 5 µM melittin in the HRBC suspension. After incubation for 1 h at 37 °C, the well plates were centrifuged at 1000×g for 10 min. at 4 °C. Subsequently, the supernatant was collected in a flat-bottomed well plate and the optical density of the released hemoglobin was measured for each well at 415 nm wavelength. The calculated absorbances from the wells were then normalized against the averaged absorbances of the positive and the negative control wells. EC50 value was calculated from the normalized absorbances indicating 50% hemolysis of HRBCs. Experiments were performed in triplicates with three independent blood samples.

[4] = hemolysis assay, HRBCs, read-out: Toxicity (EC50 in µM) HRBCs

Substance | Antibacterial activity (MIC in µM) S. carnosus [2] [µM] | Extent of leakage (in percentage) at increasing peptide-to-lipid ratio (mol/mol) 1:100 (Calcein leakage assay) | Extent of leakage (in percentage) at increasing peptide-to-lipid ratio (mol/mol) 1:10 (Calcein leakage assay) | Extent of leakage (in percentage) at increasing peptide-to-lipid ratio (mol/mol) 1:20 (Calcein leakage assay) | Extent of leakage (in percentage) at increasing peptide-to-lipid ratio (mol/mol) 1:50 (Calcein leakage assay) | Antibacterial activity (MIC in µM) E. coli TOP10 [1] [µM] | other results
H-HHHHLKKILKKLFQFINQLDNQLQDIHHHH-OH [KDFA2i+2-Hter] | > 50 | 102.5 ± 1.2 percentage | – | – | – | – | antimicrobial activity against E. coli (in words) [1]: did not show antibacterial activity; antimicrobial activity against S. carnosus (in words) [2]: did not show antibacterial activity; extent of calcein leakage at peptide-to-lipid (P:L) ratio 1:100 (Calcein leakage assay; POPC:POPG (1:1) LUVs): 100%
H-KKKKVKKILKKLIQLIDQLDKDLQDIKKKK-NH2 [KD16+9-NH2] | – | 58.8 ± 4.8 percentage | 99.1 ± 2.5 percentage | 93.1 ± 0.7 percentage | 83.0 ± 1.5 percentage | – | calcein / vesicle leakage, pore-forming ability (in words) (Calcein leakage assay; POPC:POPG (1:1) LUVs): resulted in vesicle leakage; EC50 [3]: > 50 µM
KKKKKLKKILKKLFQFINQLDNQLQDIKKKKK [KDFA2i+12] | 0.4 | – | – | – | – | 0.4 | EC50 [3, 4]: > 50 µM
KKKKLDDILDDLFQFIKQLKNKLQKIKKKK-NH2 [DKFC16+9-NH2] | 1.6 | 50.1 ± 4.1 percentage | – | 103.3 ± 0.9 percentage | 89.5 ± 3.3 percentage | > 50 | antimicrobial activity against E. coli (in words) [1]: did not show activity against E. coli; antimicrobial activity against S. carnosus (in words) [2]: found active against S. carnosus; calcein / vesicle leakage, pore-forming ability (in words) (Calcein leakage assay; POPC:POPG (1:1) LUVs): resulted in vesicle leakage; EC50 [3]: > 50 µM
KKKKLKKILKKLFQFINQLDNQLQDFKQNK [KDFA2i+8(I26F)] | 0.8 | – | – | – | – | 0.4 | EC50 [3, 4]: > 50 µM
KKKKLKKILKKLFQFINQLDNQLQDIKQNK [KDFA2i+8] | 0.4 | – | – | – | – | 0.2 | EC50 [3, 4]: > 50 µM
KKKKLKKILKKLFQFINQLENQLQEIKQNK-NH2 [KEFA2i+9-NH2] | 0.8 | – | – | – | – | 0.8 | EC50 [3, 4]: > 50 µM
KKKKLKKILKKLWQWINQLDNQLQDIKQNK-NH2 [KDWA2i+9-NH2] | 0.8 | – | – | – | – | 0.4 | EC50 [3, 4]: > 50 µM
NQKKLKKILNQLFQFINQLDNQLQDIKKQN [KDFA2] | – | 82.8 ± 1.5 percentage | – | – | 100.2 ± 0.2 percentage | 50 | MIC against E. coli [1]: 50 µM; EC50 [3]: > 50 µM
NQKKLRRILRRLFQFIDQLDNDLQDIKKQN [RDFC16Kter] | – | 64.5 ± 6.1 percentage | – | 102.2 ± 0.5 percentage | 85.3 ± 4.3 percentage | 50 | MIC against E. coli [1]: 50 µM; EC50 [3]: > 50 µM
NQRRLQNILRRLFQFIDQLINDLQNIRRQN [RDFA5] | – | Aggregated peptides and no leakage | Aggregated peptides and no leakage | Aggregated peptides and no leakage | Aggregated peptides and no leakage | – | –
NQRRLQNILRRLFQFINQLIDDLQNIRRQN [RDFA7] | – | Aggregated peptides and no leakage | Aggregated peptides and no leakage | Aggregated peptides and no leakage | Aggregated peptides and no leakage | – | –
NQRRLRRILNQLFQFINQLDNQLQDIRQNR [RDFA2i] | – | Aggregated peptides and no leakage | Aggregated peptides and no leakage | Aggregated peptides and no leakage | Aggregated peptides and no leakage | – | –
NQRRLRRILNQLFQFINQLDNQLQDIRRQN [RDFA2] | – | 80.2 ± 8.2 percentage | – | 102.9 ± 0.9 percentage | 97.4 ± 4.5 percentage | > 50 | EC50 [3]: > 50 µM
NQRRLRRILNQLWQWINQLDNQLQDIRRQN [RDWA2] | – | Aggregated peptides and no leakage | Aggregated peptides and no leakage | Aggregated peptides and no leakage | Aggregated peptides and no leakage | – | –
NQRRLRRILRRLFQFIDQLDNDLQDIRRQN [RDFC16] | – | Aggregated peptides and no leakage | Aggregated peptides and no leakage | Aggregated peptides and no leakage | Aggregated peptides and no leakage | – | –
NQRRLRRILRRLFQFINQLIDDLDDIRRQN [RDFC21] | – | Aggregated peptides and no leakage | Aggregated peptides and no leakage | Aggregated peptides and no leakage | Aggregated peptides and no leakage | – | –
NQRRLRRILRRLWQWINQLIDDLDDIRRQN [RDWC21] | – | Aggregated peptides and no leakage | Aggregated peptides and no leakage | Aggregated peptides and no leakage | Aggregated peptides and no leakage | – | –
